Test results taken from patent US6423717B1, “Sulphonamide derivatives, process for their preparation, and their use as medicaments” (SmithKline Beecham p.l.c., priority 1996, dated 2002).

molecular target: T1, human cloned 5-HT6 receptors (Homo sapiens, UniProt P50406); assay: 5-HT6 receptor binding assay, [3H]-LSD displacement on washed membranes of HeLa-5HT6 cells; settings: radio-ligand [3H]-LSD 2.0 nM, HeLa-5HT6 cell membranes, 37° C., Ki by Cheng and Prusoff
T1 construct: host or cells: HeLa cells expressing 5-HT6 (HeLa-5HT6), washed membranes
Procedure: Method for assay of 5-HT6 antagonistic activity:
The test compounds were dissolved in polyethylene glycol:dimethyl sulphoxide (1:1) at 1 or 10 mM and diluted to 0.1 mM using 5 mM tris buffer (pH 7.7 @25° C.). Dissolution was assisted by addition of 0.02 ml 5M HCl plus heating to 40° C. and sonication for 10 minutes. […] The incubation buffer was 50 mM Trizma (Sigma, UK) pH7.7 @25° C., 4 mM MgCl2.
After incubation at 37° C., the mixtures were filtered using a Packard Filtermate in Packard TopCount format. Filters were washed with 4×1 ml aliquots of ice-cold incubation buffer. Filters were dried and impregnated with 0.04 ml of Microscint 20 (Packard). IC50 values were estimated from the counts per minute using a four parameter logistic curve fit within EXCEL (2). Ki values were calculated using the method of Cheng and Prusoff(3). pIC50 and pKi are the negative log10 of the molar IC50 and Ki respectively.

T1 sequence (P50406 whole entry): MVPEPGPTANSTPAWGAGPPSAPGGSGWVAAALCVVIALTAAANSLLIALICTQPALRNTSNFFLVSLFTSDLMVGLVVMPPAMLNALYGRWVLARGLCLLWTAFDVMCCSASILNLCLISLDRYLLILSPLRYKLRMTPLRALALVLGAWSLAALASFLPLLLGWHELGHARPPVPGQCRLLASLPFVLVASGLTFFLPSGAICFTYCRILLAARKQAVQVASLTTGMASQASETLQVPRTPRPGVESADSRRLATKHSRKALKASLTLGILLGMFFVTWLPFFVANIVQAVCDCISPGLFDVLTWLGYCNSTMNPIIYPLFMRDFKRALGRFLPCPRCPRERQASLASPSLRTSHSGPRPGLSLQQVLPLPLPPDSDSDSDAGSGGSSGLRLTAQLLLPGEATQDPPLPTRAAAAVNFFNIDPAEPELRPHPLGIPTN

Row | SMILES | Ki [nM]
1 | COc1ccc(NS(=O)(=O)c2cccc(I)c2)cc1N1CCNCC1 [Example 70, 3-Iodo-N-(4-methoxy-3-piperazin-1-ylphenyl)benzenesulfonamide] | < 10
2 | COc1ccc(NS(=O)(=O)c2cc(Cl)cc(Cl)c2)cc1N1CCNCC1 [Example 72, 3,5-Dichloro-N-(4-methoxy-3-piperazin-1-ylphenyl)benzenesulfonamide] | < 10
3 | COc1ccc(NS(=O)(=O)c2cccc(Br)c2)cc1N1CCNCC1 [Example 77, 3-Bromo-N-(4-methoxy-3-piperazin-1-ylphenyl)benzenesulfonamide] | < 10
4 | COc1ccc(NS(=O)(=O)c2cccc(Cl)c2)cc1N1CCNCC1 [Example 78, 3-Chloro-N-(4-methoxy-3-piperazin-1-ylphenyl)benzenesulfonamide] | < 10
5 | COc1ccc(NS(=O)(=O)c2c(C)sc3ccc(Cl)cc23)cc1N1CCNCC1 [Example 84, 5-Chloro-2-methylbenzo[b]thiophene-3-sulfonic acid (4-methoxy-3-piperazin-1-ylphenyl) amide] | < 10
6 | COc1ccc(NS(=O)(=O)c2ccc3ccccc3c2)cc1N1CCNCC1 [Example 87, Naphthalene-2-sulfonic acid(4-methoxy-3-piperazin-1-ylphenyl)amide] | < 10
7 | COc1ccc(NS(=O)(=O)c2ccc(Cl)c(Cl)c2)cc1N1CCNCC1 [Example 90, 3,4-Dichloro-N-(4-methoxy-3-piperazin-1-ylphenyl)benzenesulfonamide] | < 10

More lines, now with the values ahead:

Row | Ki [nM] | SMILES
8 | < 10 | COc1ccc(NS(=O)(=O)c2cccc(Br)c2)cc1N1CCN(C)CC1 [Example 11, 3-Bromo-N-[4-methoxy-3-(4-methylpiperazin-1-yl)phenyl]benzenesulfonamide]
9 | < 10 | COc1ccc(NS(=O)(=O)c2cc(Cl)cc(Cl)c2)cc1N1CCN(C)CC1 [Example 15, 3,5-Dichloro-N-[4-methoxy-3-(4-methylpiperazin-1-yl)phenyl]benzenesulfonamide]
10 | < 10 | COc1ccc(NS(=O)(=O)c2ccc3c(Cl)cccc3c2)cc1N1CCN(C)CC1 [Example 61, 5-Chloronaphthalene-2-sulfonic acid [4-methoxy-3-(4-methylpiperazin-1-yl)phenyl] amide]
11 | < 10 | COc1ccc(NS(=O)(=O)c2c(C)sc3ccc(Cl)cc23)cc1N1CCN(C)CC1 [Example 65, 5-Chloro-2-methylbenzo[b]thiophene-3-sulfonic acid [4-methoxy-3-(4-methylpiperazin-1-yl)phenyl] amide]
12 | < 10 | COc1ccc(NS(=O)(=O)c2ccc3c(Cl)cccc3c2)cc1N1CCNCC1 [Example 79, 5-Chloronaphthalene-2-sulfonic acid(4-methoxy-3-piperazin-1-ylphenyl)amide]
